The subject of experiment [1] is Dct/Trp2 promoter. Put plainly: Transient CAT assay, Dct/Trp2 proximal promoter-CAT construct in SK-MEL-28. Type of experiment: cell-based, human. The settings on record: CPP concentration 10 μM. The protocol: (§1) SOX10 and MITF interact with the proximal promoter of Dct/Trp2 gene and induces its activity (Ludwig A. et al., FEBS Lett. 556 (1-3):236-244 (2004)). Thus, a Dct/Trp2 proximal promoter reporter construct was used to analyze effect of mimicking peptides on promoter activity using transient CAT assay.
(§2) Methods. Human melanoma cell lines SK-MEL-28 and WM 266-4 were obtained from the American Tissue Culture Collection (ATCC) and were cultured according to recommendations of ATCC (DMEM, 10% FCS, penicillin+streptomycin). Dct/Trp2 proximal promoter-CAT construct (Ludwig et al., supra) was used in all experiments.
(§3) Cells were transfected by using FuGene reagent (Roche Molecular Biochemicals) according to manufacturer's instructions. Freeze-thaw lysates of cells collected 48 h after the transfection were assayed for CAT activity as described (Pothier, F. et al., DNA Cell Biol. 11(1):83-90 (1992)). At least two different DNA preparations were tested for each plasmid. To normalize the transfection efficiencies, cells were cotransfected with pON260 expressing β-galactosidase (Spaete, R. R. and Mocarski, E. S., J. Virol. 54(3):817-24 (1985); Spaete, R. R. and Mocarski, E. S., J. Virol. 56(1):13543 (1985)). All the CAT activities were normalized to total protein and β-galatosidase activity.
(§4) Following transfection, cells were grown in 6 well plates, each treatment in triplicates. Peptides were added to the media and media was changed every day during the 7 day experiment. CPP concentration was 10 μM.

Experiment [2] relates to Dct/Trp2 promoter. The experiment is described as follows: Transient CAT assay, Dct/Trp2 proximal promoter-CAT construct in WM 266-4. The class given is cell-based, human. The settings on record: CPP concentration 10 μM. The protocol: as §1, §2, §3, §4
The subject of experiment [3] is B16. The experiment is described as follows: Apoptosis, Annexin V-Cy3 Apoptosis Kit. The class given is cell-based, mouse. The settings on record: CPP mimicking peptides, conc 10 µM. The procedure:
Methods. Human melanoma cell lines SK-MEL-28 and WM 2664 and mouse melanoma cell line B16 were obtained from the American Tissue Culture Collection (ATCC). Cells were cultured according to recommendations of ATCC (DMEM, 10% FCS, penicillin+streptomycin) and used in experiments after two passages in the laboratory. Cells were grown in 24 well plates, each treatment in triplicates. Cells were plated 16 hours prior treatments started. Peptides were added to the media, and media was changed every day during 7 day experiment. CPP concentration was 10 μM Apoptosis was analyzed using Biovision Annexin V-Cy3 Apoptosis Kit according to manufacturers protocols.

Experiment [4] relates to B16. Put plainly: WST-1 test (mitochondrial activity). The class given is cell-based, mouse. Particulars: CPP mimicking peptides, conc 10 µM, untreated = 1. The protocol: Methods. Human melanoma cell lines SK-MEL-28 and WM 2664 and mouse melanoma cell line B16 were obtained from the American Tissue Culture Collection (ATCC). Cells were cultured according to recommendations of ATCC (DMEM, 10% FCS, penicillin+streptomycin) and used in experiments after two passages in the laboratory. Cells were grown in 24 well plates, each treatment in triplicates. Cells were plated 16 hours prior treatments started. Peptides were added to the media, and media was changed every day during 7 day experiment. […]

For experiment [5], the system named is Human keratinocytes. Put plainly: WST-1 test (mitochondrial activity). Type of experiment: cell-based. Particulars: keratinocyte; modified peptides; conc 10 µM; untreated = 1. The protocol:
Methods. Human melanoma cell lines SK-MEL-28 and WM 266-4 were obtained from the American Tissue Culture Collection (ATCC) and were cultured according to recommendations of ATCC (DMEM, 10% FCS, penicillin+streptomycin). Human keratinocytes were obtained from Clonetics and cultured according to manufacturers protocol. Cells were used in experiments after two passages in the laboratory. Cells were grown in 24 well plates, each treatment in triplicates. Cells were plated 16 hours prior treatments started. Peptides were added to the media, and media was changed every day during 7 day experiment. […] WST-1 test was performed to measure mitochondrial activity, which can also be used as a measure of cell number.
On the technique in general: Formazan colour is commonly taken as a measure of viable cells.

Experiment [6] deals with Human keratinocytes. The experiment is described as follows: Apoptosis, Annexin V-Cy3 Apoptosis Kit. The class given is cell-based. The settings on record: keratinocyte, modified peptides, conc 10 µM.
A further experiment relates to B16 melanoma. The experiment is described as follows: Mouse tumor xenograft model, peptide membrane patch on skin melanoma. Type of experiment: in vivo. The settings on record: patch immersed in 100 μM peptide solution, start = 100. The protocol: The effect of modified mimicking peptides was analyzed by inducing melanomas in mouse skin by grafting suspension of melanoma cells. […] Tumor diameter was measured 1, 2, 3, 5, 7 days after treatmet started.
Methods. Mouse melanoma cell line B16 was cultured as described above, and approximately 5×10^6 cells were injected subcutaneously into the left and right limbs of three C57BL/6JOIaHsd mice.
Administration. Cellulose membrane was immersed in a solution of peptides (100 μM). Size of tumor was measured 1, 2, 3, 5 and 7 days following patch treatment. At the same time new patch was applied. All experiments were done in triplicates (3 animals per group).

For experiment [7], the system named is Human keratinocytes. The experiment is described as follows: Cell counting after 7 day peptide treatment. Particulars: keratinocyte, modified peptides, conc 10 µM, start count 10. The class given is cell-based. The procedure: Methods. Human melanoma cell lines SK-MEL-28 and WM 266-4 were obtained from the American Tissue Culture Collection (ATCC) and were cultured according to recommendations of ATCC (DMEM, 10% FCS, penicillin+streptomycin). Human keratinocytes were obtained from Clonetics and cultured according to manufacturers protocol. Cells were used in experiments after two passages in the laboratory. Cells were grown in 24 well plates, each treatment in triplicates. Cells were plated 16 hours prior treatments started. Peptides were added to the media, and media was changed every day during 7 day experiment. CPP concentration was 10 μM. For cell counting, cells were trypsinized (0.25% Trypsin, 2 mM EDTA) in Ca, Mg free PBS. Cells were precipitated and resuspended in 100 μl of PBS, and 5 μl were removed for counting.

For the sequence “RPKKRKVRRRFNINDRIKELGTLIPKSNDPDMRWN [MITF-int1]”, the “Dct/Trp2 promoter activity (CAT assay)” value in the experiment with Dct/Trp2 promoter [1] and in the experiment with Dct/Trp2 promoter [2] was “suppress Dct/Trp2 promoter activity significantly” each time. Also, the “Apoptosis 7 d/%” value in the experiment on B16 [3] amounted to 16%.
For the sequence “RPKKRKVRRRVKRPMNAFMVWAQAARRKLADQY [SOX10-int1]”, the “Dct/Trp2 promoter activity (CAT assay)” value in the experiment on Dct/Trp2 promoter [1] and in the experiment with Dct/Trp2 promoter [2] was “suppress Dct/Trp2 promoter activity significantly” throughout. In the experiment with B16 [4], this sequence returned a WST-1 7 d of 0.88. For the same sequence, the “Apoptosis 7 d/%” value with B16 [3] was 12%.
In the experiment on Human keratinocytes [5], “TTGGSSPQGLEAKRPKKRKVRRRFNINDRIKELGTLIPKSNDPDMRWN [MITF-int1M]” came in with a WST-1 7 d of 0.93. The “Apoptosis 7 d/%” value with Human keratinocytes [6] amounted to 5%. For the same sequence, the “tumor size change (%) 1 d” value with B16 melanoma (1 d, B16 s.c. in C57BL/6 mice) came out at 112%. The “tumor size change (%) 2 d” value with B16 melanoma (2 d) was 135%. Further, the “tumor size change (%) 3 d” value with B16 melanoma (3 d) turned out to be 150%. In the experiment with B16 melanoma (5 d), the “tumor size change (%) 5 d” value was 170%. In addition, the “tumor size change (%) 7 d” value with B16 melanoma (7 d) is 210%. The “Cell Count 7 d” value with Human keratinocytes [7] is on record as 38.

The values are drawn from US20060014712A1, “Controlled delivery of therapeutic compounds” (CeMines, Inc., priority 2004, published 2006).
